In US20230036041A1, “SORTILIN BINDING CONJUGATE COMPOUNDS, COMPOSITIONS AND USES THEREOF FOR TREATING CANCER” (THERATECHNOLOGIES INC., priority 2019, published 2023):
Read-outs that look alike come from different tables or passages of the source. Non-standard residues stand in square brackets, D forms with d. Residues, ends and D or L forms follow the SMILES beside them. *: point of attachment. X1 = CC(=O)O[C@@]12CO[C@@H]1C[C@H](O)[C@@]1(C)C(=O)[C@H](O)C3=C(C)[C@@H](OC(=O)[C@H](OC(=O)CCC(=O)*)[C@@H](NC(=O)OC(C)(C)C)c4ccccc4)C[C@@](O)([C@@H](OC(=O)c4ccccc4)[C@H]21)C3(C)C; Nle = CCCC[C@H](N)C(=O)O

Assays:
[1] = test system: MDA-MB-231 breast cancer cells; experiment: cells; assay type: cell-based, human; conditions: read-out: IC50 value, anti-proliferative activity
Procedure: In vitro testing of the TH19P01 peptide and the TH1902 conjugate compound was conducted.

[2] = assessment of neutropenia in treated mice; assay type: in vivo; conditions: athymic mice; for neutrophil counts: docetaxel 15 mg/kg/week or TH1902 at equivalent dose, up to 6 treatments, FIG. 11
Procedure: 15 young adult, female, homozygous athymic mice (Crl:CD1-Foxn1^nu, 4-6 weeks of age) received 6 consecutive treatments of docetaxel or TH1902 (at equivalent dose of docetaxel (15 mg/kg/week)). […] This level continued to decrease as the administration of docetaxel continued.

[3] = test system: AN3-CA endometrial xenograft tumor; assay type: in vivo, mice
Procedure: (§1) Briefly, stock solution of formulated TH1902 was prepared as sterile aliquots of 10 mg/mL frozen liquid solutions (see below). On the day of animal dosing, frozen aliquots were thawed 30 minutes at room temperature then diluted with sterile 5% dextrose injection, USP (D5W) to the desired concentration for injection (i.e. typically 5.4 or 1.35 mg/mL).
(§2) TH1902 frozen stock solution were prepared as follow: • 1. Make the TH1902 diluent solution (Diluent) the day before the solubilization. Diluent: 10% Tween™ 80 in D5W USP (w/v) with 0.04% of formic acid (v/v), ˜pH 2.9. Leave solution at room temperature until TH1902 solubilization (next day). • 2. Weigh 60 mg of TH1902 API into a 14 ml glass vial with screw caps. Adjust TH1902 weights to reflect TH1902 purity according to the certificate of analysis. • 3. Add 90% of diluent solution needed to prepare the TH1902 10 mg/ml stock solution. • 4. Swirl the content of the bottle to form opaque mixture and place a stir bar. • 5. Place bottle in the heating apparatus (glass water bath and mount for holding vial with thermometer and stir bar on a digital heating plate). Begin mixing the content of the bottle. • 6. […] Transfer the formulation to a graduated glass cylinder and bring to final calculated volume with diluent solution. • 9. […] Perform UPLC analysis against a TH1902 standard curve for quantification and purity assessment. • 11. […]
Three human sortilin-positive gynecological cancer cell lines (ovary: ES-2 and SKOV-3/Luc, endometrial: AN3-CA) were used for to assess the chemotherapeutic activity of TH1902 in vivo using xenograft models in immunodeficient mice. […] Body weights of the mice administered with docetaxel, TH1902 or vehicle were monitored as a gross indicator of morbidity.
The effect of TH1902 or docetaxel on the endometrial AN3-CA xenograft tumor model is shown on FIG. 24. […] In FIG. 24B effects of TH1902 and docetaxel on tumor progression at day-14 are presented by subtracting the initial tumor volumes at day-0 to the tumor volumes measured at day 14. […]

[4] = test system: HT29 colorectal xenograft tumors; experiment: colorectal cancer xenograft model (HT-29); assay type: in vivo, mice; conditions: low and high doses, −20% endpoint limit
Procedure: as §1, §2

[5] = test system: murine B16-F10 cancer cells; experiment: syngeneic melanoma tumor model (B16-F10); assay type: in vivo, mice; conditions: for body weights, dose-response study: equivalent doses, −20% endpoint limit
Procedure: as §1
TH1902 frozen stock solution were prepared as follow: • 1. Make the TH1902 diluent solution (Diluent) the day before the solubilization. Diluent: 10% Tween™ 80 in D5W USP (w/v) with 0.04% of formic acid (v/v), ˜pH 2.9. Leave solution at room temperature until TH1902 solubilization (next day). • 2. Weigh 60 mg of TH1902 API into a 14 ml glass vial with screw caps. Adjust TH1902 weights to reflect TH1902 purity according to the certificate of analysis. • 3. Add 90% of diluent solution needed to prepare the TH1902 10 mg/ml stock solution. • 4. Swirl the content of the bottle to form opaque mixture and place a stir bar. • 5. Place bottle in the heating apparatus (glass water bath and mount for holding vial with thermometer and stir bar on a digital heating plate). Begin mixing the content of the bottle. • 6. Gradually increase the temperature of water bath in increments of 5° C. every 30 minutes until mixture turns clear (temperature ramping up to 45° C. over a period of time of about 165 to 180 minutes). Record water bath temperature every 15 minutes. • 7. Leave at room temperature for 30 minutes with gentle swirling (cool down). Measure pH. Adjust pH to 4.3±0.2 using dilute NaOH (0.1 N or less). • 8. Transfer the formulation to a graduated glass cylinder and bring to final calculated volume with diluent solution. • 9. Transfer back into the 14 ml glass vial and mix slowly for 5 minutes at room temperature. Measure pH. pH should be 4.3±0.2. • 10. Filter sterilize with a PES 0.22 μm membrane into a new and sterile 14 ml glass vial. Check the pH again. Perform UPLC analysis against a TH1902 standard curve for quantification and purity assessment. • 11. Freeze aliquots of TH1902 stock solution at −80° C. (0.5 mL per aliquot in 4 mL glass vials).
For the syngeneic B16-F10 melanoma tumor model, normal immunocompetent mice were implanted subcutaneously with murine B16-F10 cancer cells. […]
For FIG. 28A, immunocompetent mice bearing B16-F10 xenografts were repeatedly injected intravenously (arrows indicate injection days) with vehicle or with vehicle containing equivalent of docetaxel (15 mg/kg/week) or TH1902 (35 mg/kg/week). In FIG. 28B, the effects of TH1902 and docetaxel on tumor progression at day-14 are presented by subtracting the initial tumor volumes at day-0 to the tumor volumes measured at day-14 when tumors of the vehicle group reached the endpoint limits. […]

[6] = mouse plasma levels after IV bolus injection; assay type: in vivo, mice
Procedure: In addition, TH1902 and docetaxel mouse plasma levels were assessed in TH1902-treated mice.

In the case of `CCCC[C@H](NC(=O)[C@H](CC(N)=O)NC(=O)[C@H](CCCNC(=N)N)NC(=O)[C@@H](NC(=O)CNC(=O)[C@H](C)NC(=O)[C@H](CCCCNC(=O)CCC(=O)O[C@@H](C(=O)O[C@H]1C[C@@]2(O)[C@@H](OC(=O)c3ccccc3)[C@@H]3[C@]4(OC(C)=O)CO[C@@H]4C[C@H](O)[C@@]3(C)C(=O)[C@H](O)C(=C1C)C2(C)C)[C@@H](NC(=O)OC(C)(C)C)c1ccccc1)NC(=O)[C@H](C)NC(=O)[C@H](CCCNC(=N)N)NC(=O)[C@@H](NC(=O)CNC(C)=O)C(C)C)C(C)C)C(=O)N[C@@H](Cc1ccccc1)C(=O)N[C@@H](CCCCNC(=O)CCC(=O)O[C@@H](C(=O)O[C@H]1C[C@@]2(O)[C@@H](OC(=O)c3ccccc3)[C@@H]3[C@]4(OC(C)=O)CO[C@@H]4C[C@H](O)[C@@]3(C)C(=O)[C@H](O)C(=C1C)C2(C)C)[C@@H](NC(=O)OC(C)(C)C)c1ccccc1)C(=O)N[C@@H](CO)C(=O)N[C@@H](CCC(=O)O)C(=O)N[C@@H](CO)C(=O)N[C@@H](Cc1ccc(O)cc1)C(=O)O` [TH1902, Acetyl-GVRAK(docetaxel)AGVRN(Nle)FK(docetaxel)SESY] (Ac-GVRAK(X1)AGVRN[Nle]FK(X1)SESY-OH), the IC50 [1] is reported as 0.19 ± 0.09 nM, the weight loss ([2]; TH1902 at equivalent dose of docetaxel 15 mg/kg/week) is reported as “no weight loss was observed” and the neutrophil counts [2] is reported as “no apparent change in the neutrophil counts”. For the same molecule, the body weights ([3]; MTD for docetaxel, TH1902 containing the equivalent quantity of docetaxel) was “retained a fairly constant weight”, the body weights [4] was “within the acceptable range” and the “mouse body weights, first study” value ([5]; TH1902 35 mg/kg/week) was “without having an impact on mouse body weights”. The “body weights, dose-response study” value [5] was “within the acceptable range”, the “concentration of docetaxel released from TH1902 in plasma” value ([6]; mouse plasma, IV bolus injection 50 mg/kg TH1902) was “very low concentration” and the “plasma concentration of TH1902” value ([6]; mouse plasma, IV bolus injection 50 mg/kg TH1902, FIG. 12) was “high plasma concentration”.

For `CC(=O)O[C@@]12CO[C@@H]1C[C@H](O)[C@@]1(C)C(=O)[C@H](O)C3=C(C)[C@@H](OC(=O)[C@H](O)[C@@H](NC(=O)OC(C)(C)C)c4ccccc4)C[C@@](O)([C@@H](OC(=O)c4ccccc4)[C@H]21)C3(C)C` [docetaxel], the IC50 ([1]; Homo sapiens) was 0.56 ± 0.19 nM, the neutrophil counts [2] was “sharp drop in neutrophil levels” and the “tumor growth, high dose” value ([3]; equivalent dose of docetaxel 15 mg/kg/week (TH1902 35 mg/kg/week), halved after 2 cycles) was “complete arrest tumor growth arrest”. For the same molecule, the body weights ([3]; mouse, in vivo) was “greater evidence of weight loss”, the body weights [4] was “within the acceptable range” and the “tumor growth at the highest dose, dose-response study” value ([5]; TH1902 23 mg/kg/bi-weekly, docetaxel 10 mg/kg/bi-weekly) was “only a minor impact on tumor growth”. The “body weights, dose-response study” value [5] was “within the acceptable range” and the “docetaxel concentration that can be measured in plasma” value ([6]; administered as a free drug) was 15-20%.
